Results on 7 compounds are retold here after paper PMC12613110, “Anti-Trypanosoma cruzi Effects of Sesquiterpenoids from Branches of Drimys brasiliensis (Winteraceae)” (ACS Omega, 2025).

In data set [1] the test system is T. cruzi trypomastigotes (Y strain). The data set is described as follows: Anti-T. cruzi activity against trypomastigote forms (resazurin reduction assay, 24 h). It is filed as cell-based. Particulars: Trypanosoma cruzi, ± SD. The procedure: (§1) The trypomastigote forms of T. cruzi (Y strain) were maintained in culture using Rhesus monkey kidney cells (LLC-MK2, ATCC CCL-7). These cells were cultured in RPMI-1640 medium supplemented with 2% fetal bovine serum (FBS) and incubated at 37 °C in a humidified atmosphere containing 5% CO2. Mouse fibroblast cells (NCTC clone L929, ATCC) and LLC-MK2 cells were similarly maintained in RPMI-1640 medium supplemented with 10% FBS under identical incubation conditions (37 °C, 5% CO2). Peritoneal macrophages were isolated from BALB/c mice by peritoneal lavage using RPMI-1640 medium supplemented with 10% FBS, followed by incubation at 37 °C in a 5% CO2 humidified atmosphere. In addition, the human monocytic cell line THP-1 (ATCC TIB-202) was cultured in RPMI-1640 medium supplemented with 20% FBS and […] glutamine, and maintained at 37 °C in a humidified 5% CO2 environment.
Compounds 1–6 were initially dissolved in DMSO and subsequently diluted in RPMI-1640 medium to the desired concentrations before being dispensed into 96-well microplates. T. cruzi trypomastigotes were then added at a density of 1 × 10^6 parasites per well. The plates were incubated for 24 h at 37 °C in a humidified atmosphere containing 5% CO2. Following incubation, the 50% effective concentration (EC50) was determined using the resazurin reduction assay. Absorbance readings were acquired at 570 nm using a microplate spectrophotometer (FilterMax F5). Untreated parasites served as the negative control, while benznidazole, a standard reference drug, was used as the positive control.
(§2) The CC50 and EC50 values were obtained from sigmoid dose–response curves using Graph-Pad Prims 6.0 software. All samples were tested in triplicate.
Background: Alamar Blue is a resazurin reagent that responds to reducing activity.

The subject of data set [2] is intracellular amastigote forms of T. cruzi. Description: Activity against intracellular amastigote forms of T. cruzi in infected peritoneal macrophages (48 h). It is filed as cell-based. The conditions noted are these: Trypanosoma cruzi, Peritoneal macrophage, intracellular amastigotes in peritoneal macrophages, ± SD, NA: nonactive. The procedure:
as §1
The antiparasitic activity of compounds 1–6 against the intracellular amastigote forms of T. cruzi was assessed using an in vitro infection model with peritoneal macrophages. Macrophages were seeded in 16-well plates at a density of 1 × 10^5 cells per well and incubated at 37 °C in a humidified atmosphere containing 5% CO2 for 24 h to promote adherence. Cells were then infected with trypomastigotes for 2 h under the same conditions to allow parasite internalization. Following infection, noninternalized parasites were removed by washing with RPMI-1640 medium. The infected macrophages were subsequently treated with serial dilutions of compounds 1–6 (150.0–1.6 μM) and incubated for an additional 48 h at 37 °C in 5% CO2 to evaluate their antitrypanosomal efficacy. ,
as §2

Data set [3] in a line: Mammalian cytotoxicity, MTT assay (48 h). It is filed as cell-based. Particulars: mouse. The procedure:
as §1
The cytotoxicity of compounds 1–6 was assessed using NCTC (clone L929) cell line. NCTC cells (6 × 10^4 cells/well) were seeded into 96-well plates and treated with serial dilutions of the test compounds prepared in RPMI-1640 medium supplemented with 10% fetal bovine serum (FBS). Following a 48-h incubation at 37 °C in a humidified atmosphere with 5% CO2, cell viability was determined using the MTT colorimetric assay. The 50% cytotoxic concentration (CC50) was calculated based on absorbance measurements at 570 nm using a FilterMax F5 microplate reader (Molecular Devices).
as §2

The next data set has as its system Leishmania infantum. Also noted: method as in previous study by our group. Particulars: after a short incubation period; ref previous study by our group; cited from earlier work.
Where [4] appears, read: NCTC clone L929 fibroblast cells.

Take `CC(C)=CCC[C@@H](C)C1=CC(=O)[C@@](C)(O)CC1` (relative stereo) [Compound 1, rel-(3S,7R)-3-hydroxy-bisabola-1(6),10-dien-2-one]: the results for the EC50 in data set [1] and in data set [2] were 38.5 ± 2.7 µM and 6.7 ± 3.8 µM, respectively. Moreover, in data set [3] (setting [4]), the 50% cytotoxic concentration (CC50) at 48 h is greater than 200 µM.

`CC(C)=CCC[C@@H](C)C1=C[C@H](O)[C@@](C)(O)CC1` (relative stereo) [Compound 2, rel-(2S,3S,7R)-bisabola-1(6),10-diene-2,3-diol]: the EC50 in data set [1] turned out to be 88.3 ± 6.5 µM; in data set [2], 24.2 ± 4.4 µM. The CC50 at 48 h in data set [3] (setting [4]) is greater than 200 µM.

On to `O=C(Cn1ccnc1[N+](=O)[O-])NCc1ccccc1` [benznidazole, reference compound], for which the EC50 in data set [1] is 17.4 ± 1.8 µM; in data set [2], 5.5 ± 2.2 µM. In data set [3] (setting [4]), this compound gave a CC50 at 48 h greater than 200 µM.

`CC1(C)CCC[C@]2(C)[C@@H](C=O)C(C=O)=CC[C@@H]12` [Compound 5, polygodial]: the values for the EC50 in data set [1] and in data set [2] were 3.8 ± 3.1 µM and 3.5 ± 0.2 µM, respectively. This compound also showed a CC50 at 48 h in data set [3] (setting [4]) greater than 200 µM. Moreover, the “ultrastructural damage to Leishmania” value in the data set on Leishmania infantum was “intense mitochondrial swelling”.

`CC(C)=CCC[C@@H](C)[C@]12C=C[C@](C)(CC1)OO2` (relative stereo) [Compound 3, rel-(3S,6R,7R)-3,6-epidioxy-1,10-bisaboladiene]: the EC50 in data set [1] was found to be 65.5 ± 5.4 µM. In data set [3] (setting [4]), this compound displayed a CC50 at 48 h greater than 200 µM.

On to `CC(C)=CCC[C@@H](C)c1ccc(C)cc1` [Compound 4, α-curcumene], for which the EC50 in data set [1] is 20.5 ± 1.6 µM; in data set [2], 4.9 ± 0.1 µM. Also, the CC50 at 48 h in data set [3] (setting [4]) is greater than 200 µM.

Turning to `C=C1[C@@H](C)CC[C@]2(C)[C@@H](C=O)C(C=O)=CC[C@@H]12` [Compound 6, 9-deoxymuzigadial], the half-maximal effective concentration (EC50) in data set [1] turned out to be 5.9 ± 0.9 µM; in data set [2], 3.1 ± 0.1 µM. Moreover, in data set [3] (NCTC clone L929 cells), the CC50 at 48 h is greater than 200 µM.

By EC50 is commonly meant the midpoint of the concentration-response curve. High values mean a need for much substance, low ones an effect from little substance. For orientation: CC50 means the concentration at which the toxic effect on the cells reaches its halfway point. A low value points to harm at low concentration.
